For 10 molecules, EC50 and CC50 results are on record in US20220409619A1, “INHIBITORS OF HUMAN IMMUNODEFICIENCY VIRUS REPLICATION” (VIIV HEALTHCARE UK (No. 5) LIMITED, priority 2019, published 2022).

Some results are limits rather than exact numbers.

The subject of series [1] is recombinant NL4-3 virus (nef section replaced with Renilla luciferase gene) in MT-2 cells. The experiment in a line: HIV cell culture assay (antiviral activity, luciferase readout). In kind it is cell-based. As to conditions: Renilla, NL43. On the procedure:
HIV cell culture assay—MT-2 cells, 293T cells and the proviral DNA clone of NL4-3 virus were obtained from the NIH AIDS Research and Reference Reagent Program. MT-2 cells were propagated in RPMI 1640 media supplemented with 10% heat inactivated fetal bovine serum (FBS), 100 μg/ml penicillin G and up to 100 units/mL streptomycin. The 293T cells were propagated in DMEM media supplemented with 10% heat inactivated FBS, 100 μg/mL penicillin G and 100 μg/mL streptomycin. A recombinant NL4-3 proviral clone, in which a section of the nef gene was replaced with the Renilla luciferase gene, was used to make the reference virus used in these studies. The recombinant virus was prepared through transfection of the recombinant NL4-3 proviral clone into 293T cells using Transit-293 Transfection Reagent from Mirus Bio LLC (Madison, Wis.). Supernatent was harvested after 2-3 days and the amount of virus present was titered in MT-2 cells using luciferase enzyme activity as a marker by measuring luciferase enzyme activity. Luciferase was quantitated using the EnduRen Live Cell Substrate from Promega (Madison, Wis.). Antiviral activities of compounds toward the recombinant virus were quantified by measuring luciferase activity in MT-2 cells infected for 4-5 days with the recombinant virus in the presence of serial dilutions of the compound.
The 50% effective concentration (EC50) was calculated by using the exponential form of the median effect equation where (Fa)=1/[1+(ED50/drug conc.)^m] (Johnson V A, Byington R T. Infectivity Assay. In Techniques in HIV Research. ed. Aldovini A, Walker B D. 71-76. New York: Stockton Press. 1990). Curve fitting and analysis were performed with ActivityBase XE Runner software version 9.1.0.4 using model 203 (ID Business Solutions, LTD, Guildford, UK).

A short description of series [2]: Compound cytotoxicity, XTT-based colorimetric assay. The series is classed as cell-based. As to conditions: human; uninfected MT2 cells, day 4, XTT-based colorimetric assay. On the procedure: Compound cytotoxicity and the corresponding CC50 values were determined using the same protocol as described in the antiviral assay except that uninfected cells were used. Cytotoxicity was assessed on day 4 in uninfected MT2 cells by using a XTT (2,3-bis[2-Methoxy-4-nitro-5-sulfophenyl]-2H-tetrazolium-5-carboxyanilide inner salt)-based colorimetric assay (Sigma-Aldrich, St Louis, Mo.).

Consider `COc1cnc(-c2cc(=O)n(-c3ccc(Cl)c4c(NS(C)(=O)=O)nn(C)c34)c([C@H](Cc3cc(F)cc(F)c3)NC(=O)Cn3nc(C(F)F)c4c3C(F)(F)[C@@H]3C[C@H]43)n2)cn1` (atropisomer, axis not shown; (P)) [Example 13, N-((S)-1-((1P)-1-(4-chloro-1-methyl-3-(methylsulfonamido)-1H-indazol-7-yl)-4-(5-methoxypyrazin-2-yl)-6-oxo-1,6-dihydropyrimidin-2-yl)-2-(3,5-difluorophenyl)ethyl)-2-((3bS,4aR)-3-(difluoromethyl)-5,5-difluoro-3b,4,4a,5-tetrahydro-1H-cyclopropa[3,4]cyclopenta[1,2-c]pyrazol-1-yl)acetamide], for which, in series [1], the concentration for a half-maximal effect (EC50) is 0.2 nM. Further, the CC50 at 4 days in series [2] was above 100 nM.
The matching figures for `O=C(Cn1nc(C(F)F)c2c1C(F)(F)[C@@H]1C[C@H]21)N[C@@H](Cc1cc(F)cc(F)c1)c1nc(-c2cccc(C(F)(F)F)n2)cc(=O)n1-c1ccc(Cl)c2c(NS(=O)(=O)C3CC3)nn(CC(F)F)c12` (atropisomer, axis not shown; (P)) [Example 44, N-((S)-1-((1P)-1-(4-chloro-3-(cyclopropanesulfonamido)-1-(2,2-difluoroethyl)-1H-indazol-7-yl)-6-oxo-4-(6-(trifluoromethyl)pyridin-2-yl)-1,6-dihydropyrimidin-2-yl)-2-(3,5-difluorophenyl)ethyl)-2-((3bS,4aR)-3-(difluoromethyl)-5,5-difluoro-3b,4,4a,5-tetrahydro-1H-cyclopropa[3,4]cyclopenta[1,2-c]pyrazol-1-yl)acetamide]: 0.24 nM and above 100 nM.
As to `Cn1nc(NS(C)(=O)=O)c2c(Cl)ccc(-n3c([C@H](Cc4cc(F)cc(F)c4)NC(=O)Cn4nc(C(F)F)c5c4C(F)(F)[C@@H]4C[C@H]54)nc(-c4ccc(Cl)cn4)cc3=O)c21` (atropisomer, axis not shown; (P)) [Example 24, N-((S)-1-((1P)-1-(4-chloro-1-methyl-3-(methylsulfonamido)-1H-indazol-7-yl)-4-(5-chloropyridin-2-yl)-6-oxo-1,6-dihydropyrimidin-2-yl)-2-(3,5-difluorophenyl)ethyl)-2-((3bS,4aR)-3-(difluoromethyl)-5,5-difluoro-3b,4,4a,5-tetrahydro-1H-cyclopropa[3,4]cyclopenta[1,2-c]pyrazol-1-yl)acetamide], the EC50 in series [1] stood at 0.37 nM. This molecule showed a 50% cytotoxic concentration (CC50) at 4 days in series [2] above 100 nM.
Take `Cn1nc(NS(C)(=O)=O)c2c(Cl)ccc(-n3c([C@H](Cc4cc(F)cc(F)c4)NC(=O)Cn4nc(C(F)F)c5c4C(F)(F)[C@@H]4C[C@H]54)nc(-c4nccc(C(F)(F)F)n4)cc3=O)c21` (atropisomer, axis not shown; (aR)) [Example 6, N-((S)-1-((1′P)-1′-(4-chloro-1-methyl-3-(methylsulfonamido)-1H-indazol-7-yl)-6′-oxo-4-(trifluoromethyl)-1′,6′-dihydro-[2,4′-bipyrimidin]-2′-yl)-2-(3,5-difluorophenyl)ethyl)-2-((3bS,4aR)-3-(difluoromethyl)-5,5-difluoro-3b,4,4a,5-tetrahydro-1H-cyclopropa[3,4]cyclopenta[1,2-c]pyrazol-1-yl)acetamide]: in series [1], the EC50 was determined as 0.054 nM. Further, the CC50 at 4 days in series [2] is above 100 nM.
Regarding `CCc1cnc(-c2cc(=O)n(-c3ccc(Cl)c4c(NS(=O)(=O)C5CC5)nn(CC(F)F)c34)c([C@H](Cc3cc(F)cc(F)c3)NC(=O)Cn3nc(C(F)F)c4c3C(F)(F)[C@@H]3C[C@H]43)n2)nc1` (atropisomer, axis not shown; (aR)) [Example 39, N-((S)-1-((1′P)-1′-(4-chloro-3-(cyclopropanesulfonamido)-1-(2,2-difluoroethyl)-1H-indazol-7-yl)-5-ethyl-6′-oxo-1′,6′-dihydro-[2,4′-bipyrimidin]-2′-yl)-2-(3,5-difluorophenyl)ethyl)-2-((3bS,4aR)-3-(difluoromethyl)-5,5-difluoro-3b,4,4a,5-tetrahydro-1H-cyclopropa[3,4]cyclopenta[1,2-c]pyrazol-1-yl)acetamide], the concentration giving a half-maximal response (EC50) in series [1] was 0.059 nM. In addition, in series [2], the CC50 at 4 days is above 100 nM.
For `COC(C)(C)CCc1cc(=O)n(-c2ccc(Cl)c3c(NS(C)(=O)=O)nn(C)c23)c([C@H](Cc2cc(F)cc(F)c2)NC(=O)Cn2nc(C(F)F)c3c2C(F)(F)[C@@H]2C[C@H]32)n1` (atropisomer, axis not shown; (P)) [Example 10, N-((S)-1-((1P)-1-(4-chloro-1-methyl-3-(methylsulfonamido)-1H-indazol-7-yl)-4-(3-methoxy-3-methylbutyl)-6-oxo-1,6-dihydropyrimidin-2-yl)-2-(3,5-difluorophenyl)ethyl)-2-((3bS,4aR)-3-(difluoromethyl)-5,5-difluoro-3b,4,4a,5-tetrahydro-1H-cyclopropa[3,4]cyclopenta[1,2-c]pyrazol-1-yl)acetamide], the EC50 in series [1] was 0.079 nM. The same molecule displayed a CC50 at 4 days in series [2] above 100 nM.
`COC(C)(C)C#Cc1cc(=O)n(-c2ccc(Cl)c3c(NS(C)(=O)=O)nn(C)c23)c([C@H](Cc2cc(F)cc(F)c2)NC(=O)Cn2nc(C(F)F)c3c2C(F)(F)[C@@H]2C[C@H]32)n1` (atropisomer, axis not shown; (P)) [Example 9, N-((S)-1-((1P)-1-(4-chloro-1-methyl-3-(methylsulfonamido)-1H-indazol-7-yl)-4-(3-methoxy-3-methylbut-1-yn-1-yl)-6-oxo-1,6-dihydropyrimidin-2-yl)-2-(3,5-difluorophenyl)ethyl)-2-((3bS,4aR)-3-(difluoromethyl)-5,5-difluoro-3b,4,4a,5-tetrahydro-1H-cyclopropa[3,4]cyclopenta[1,2-c]pyrazol-1-yl)acetamide]: the half-maximal effective concentration (EC50) in series [1] amounted to 0.04 nM. Besides, the 50% cytotoxic concentration (CC50) at 4 days in series [2] was above 100 nM.
On the same counts, the results for `CCOc1cnc(-c2cc(=O)n(-c3ccc(Cl)c4c(NS(=O)(=O)C5CC5)nn(CC(F)F)c34)c([C@H](Cc3cc(F)cc(F)c3)NC(=O)Cn3nc(C(F)F)c4c3C(F)(F)[C@@H]3C[C@H]43)n2)nc1` (atropisomer, axis not shown; (aR)) [Example 29, N-((S)-1-((1′P)-1′-(4-chloro-3-(cyclopropanesulfonamido)-1-(2,2-difluoroethyl)-1H-indazol-7-yl)-5-ethoxy-6′-oxo-1′,6′-dihydro-[2,4′-bipyrimidin]-2′-yl)-2-(3,5-difluorophenyl)ethyl)-2-((3bS,4aR)-3-(difluoromethyl)-5,5-difluoro-3b,4,4a,5-tetrahydro-1H-cyclopropa[3,4]cyclopenta[1,2-c]pyrazol-1-yl)acetamide] are 0.052 nM and above 100 nM.
The matching figures for `COc1cnc(-c2cc(=O)n(-c3ccc(Cl)c4c(NS(=O)(=O)C5CC5)nn(CC(F)F)c34)c([C@H](Cc3cc(F)cc(F)c3)NC(=O)Cn3nc(C(F)F)c4c3C(F)(F)[C@@H]3C[C@H]43)n2)cn1` (atropisomer, axis not shown; (P)) [Example 31, N-((S)-1-((1P)-1-(4-chloro-3-(cyclopropanesulfonamido)-1-(2,2-difluoroethyl)-1H-indazol-7-yl)-4-(5-methoxypyrazin-2-yl)-6-oxo-1,6-dihydropyrimidin-2-yl)-2-(3,5-difluorophenyl)ethyl)-2-((3bS,4aR)-3-(difluoromethyl)-5,5-difluoro-3b,4,4a,5-tetrahydro-1H-cyclopropa[3,4]cyclopenta[1,2-c]pyrazol-1-yl)acetamide]: 0.53 nM and above 100 nM.
With `COC(C)(C)C#Cc1cc(=O)n(-c2ccc(Cl)c3c(NS(=O)(=O)C4CC4)nn(CC(F)F)c23)c([C@H](Cc2cc(F)cc(F)c2)NC(=O)Cn2nc(C(F)F)c3c2C(F)(F)[C@@H]2C[C@H]32)n1` (atropisomer, axis not shown; (P)) [Example 41, N-((S)-1-((1P)-1-(4-chloro-3-(cyclopropanesulfonamido)-1-(2,2-difluoroethyl)-1H-indazol-7-yl)-4-(3-methoxy-3-methylbut-1-yn-1-yl)-6-oxo-1,6-dihydropyrimidin-2-yl)-2-(3,5-difluorophenyl)ethyl)-2-((3bS,4aR)-3-(difluoromethyl)-5,5-difluoro-3b,4,4a,5-tetrahydro-1H-cyclopropa[3,4]cyclopenta[1,2-c]pyrazol-1-yl)acetamide], the EC50 in series [1] was 0.064 nM. In addition, the CC50 at 4 days in series [2] was above 100 nM.
